We go through 14 molecules from article PMC2856487 (Journal of natural products, 2009).

Converted amounts (≈) assume the structure as drawn. Some results are limits rather than exact numbers.

For data set [1], the system named is lettuce (Lactuca sativa cv. L. Iceberg). Briefly: initial phytotoxicity bioassay, lettuce. The format is in vivo. The note with it: for Phytotoxic activity ranking: visual scale 0 to 5, 0 = no effect, 5 = no growth; for growth inhibition (in words): 1 mg/mL (highest concentration).
Data set [2] concerns bentgrass (Agrostis stolonifera). Briefly: initial phytotoxicity bioassay, bentgrass. The format is in vivo. The note with it: for Phytotoxic activity ranking: visual scale 0 to 5, 0 = no effect, 5 = no growth; for growth inhibition (in words): 1 mg/mL (highest concentration).
The test system of data set [3] is duckweed (Lemna pausicostata). Briefly: duckweed growth bioassay. The format is in vivo. The note with it: 168 h, read-out: I50, growth of duckweed.
The nature of data set [4]: cytotoxicity to KB cells. The format is cell-based. The note with it: human.
Data set [5] in a line: cytotoxicity to SK-OV-3 cells. The note with it: human. The format is cell-based.
Data set [6] is described as follows: cytotoxicity to BT-549 cells. The format is cell-based. The note with it: human.
Data set [7] concerns D6 (chloroquin sensitive) strain of P. falciparum. Briefly: in vitro antiplasmodial activity, D6 clone. The format is cell-based, Plasmodium falciparum. The note with it: for antiplasmodial activity (in words): D6 strain; for IC50: Plasmodium falciparum, D6, 72 h, read-out: D6-clone IC50.
The subject of data set [8] is W2 (chloroquin resistant) strain of P. falciparum. In words: in vitro antiplasmodial activity, W2 clone. The note with it: for IC50: Plasmodium falciparum, W2, 72 h, read-out: W2-clone IC50; for antiplasmodial activity (in words): W2 strain. It is filed as cell-based, Plasmodium falciparum.
Data set [9] can be described thus: cytotoxicity to SK-MEL cells. The format is cell-based. The note with it: human.
Data set [10] in a line: cytotoxicity to LLC-PK11 cells. It is filed as cell-based. The note with it: pig.
The test system of data set [11] is wheat coleoptile. The note with it: cited from earlier work.
In data set [12] the test system is a number of plant species. The note with it: cited from earlier work.
A short description of data set [13]: cytotoxicity to Vero cells. It is filed as cell-based. The note with it: African green monkey, Vero cells (kidney fibroblast).
The mark [14] stands for this setting: BT-549 cells (breast ductal carcinoma).
[15] abbreviates: KB cells (oral epidermal carcinoma).
[16] abbreviates: SK-OV-3 cells (ovary carcinoma).
Where [17] appears, read: LLC-PK11 cells (kidney epithelial).

Consider `C[C@]12C=C[C@H](O)[C@]3(C)C(=O)O[C@@H](C13)[C@H]1O[C@]13COC(=O)C=C32` (some centres unmarked) [Compound 1], for which the Phytotoxic activity ranking in data set [1] (0.01 mg/mL) worked out at 5; in data set [1] (0.1 mg/mL) it was 5; in data set [1] (1.0 mg/mL) it was 5; in data set [2] (0.01 mg/mL), 4; in data set [2] (0.1 mg/mL), 5; in data set [2] (1.0 mg/mL) it was 5.
Turning to `C[C@]12C=CC[C@]3(C)C(=O)O[C@@H](C13)[C@H]1O[C@]13COC(=O)C=C32` (some centres unmarked) [Compound 2], the IC50 in data set [3] is 390 to 950 nM. Moreover, the IC50 at 48 h in data set [4] and in data set [5] was above 10 µg/mL throughout. Besides, the Phytotoxic activity ranking in data set [1] (0.001 mg/mL) was 0; in data set [1] (0.01 mg/mL) it was 3; in data set [1] (0.1 mg/mL), 5; in [1] (1.0 mg/mL) it was 5; in data set [2] (0.001 mg/mL), 1; in [2] (0.01 mg/mL) it was 4. Moreover, the Phytotoxic activity ranking in data set [2] (0.1 mg/mL) and in [2] (1.0 mg/mL) was 5 in each case.
For `C[C@]12CC[C@@H](O)[C@]3(C)C(=O)O[C@@H](C13)[C@H]1O[C@]13COC(=O)C=C32` (some centres unmarked) [Compound 3], the IC50 at 48 h in data set [6], in [9], in [4], in [5] and in data set [10] was above 10 µg/mL each time. Moreover, the “antiplasmodial activity (in words)” value in data set [7] and in data set [8] was “inactive” throughout. The IC50 in data set [7] and in [8] was above 4.76 µg/mL in each case. Besides, the Phytotoxic activity ranking is 0 in data set [1] (0.001 mg/mL); 0 in data set [1] (0.01 mg/mL); 4 in data set [1] (0.1 mg/mL); 5 in data set [1] (1.0 mg/mL); 0 in data set [2] (0.001 mg/mL); 0 in [2] (0.01 mg/mL). Further, the Phytotoxic activity ranking was 4 in [2] (0.1 mg/mL) and 5 in data set [2] (1.0 mg/mL). In addition, the “growth inhibition (in words)” value in data set [1] and in [2] was “total inhibition of growth” each time.
With `C[C@@]12C[C@@H](O)C[C@]3(C)C4=CC(=O)OC[C@]45O[C@@H]5[C@@H](OC1=O)C23` (some centres unmarked) [Compound 4], the IC50 in data set [8] turned out to be 0.82 µg/mL (≈ 2.68 µM). Moreover, the Phytotoxic activity ranking in data set [1] (0.001 mg/mL) came out at 0; in [1] (0.01 mg/mL), 3; in data set [1] (0.1 mg/mL) it was 5; in data set [1] (1.0 mg/mL), 5; in data set [2] (0.001 mg/mL), 0; in [2] (0.01 mg/mL) it was 2. Further, the Phytotoxic activity ranking in data set [2] (0.1 mg/mL) and in data set [2] (1.0 mg/mL) was 5 throughout.
With `C[C@@]12CC[C@@H](O)[C@]3(C)C4=CC(=O)OC[C@]45O[C@@H]5[C@@H](OC1=O)C23` (some centres unmarked) [Compound 5], the IC50 at 48 h in data set [6] (setting [14]), in data set [4] (setting [15]), in [5] (setting [16]) and in data set [10] (setting [17]) was above 10 µg/mL throughout. The “antiplasmodial activity (in words)” value in [7] and in data set [8] was “inactive” in each case. In addition, the Phytotoxic activity ranking in data set [1] (0.001 mg/mL) is 1; in data set [1] (0.01 mg/mL), 4; in data set [1] (0.1 mg/mL), 5; in data set [1] (1.0 mg/mL) it was 5; in data set [2] (0.001 mg/mL) it was 0; in data set [2] (0.01 mg/mL), 4. Further, the Phytotoxic activity ranking in data set [2] (0.1 mg/mL) and in data set [2] (1.0 mg/mL) was 5 in each case.
Take `C[C@@]12C=C[C@H](O)[C@]3(C)C(=O)O[C@H](C=C4COC(=O)C=C41)C23` (some centres unmarked) [Compound 6]: the IC50 was 0.043 µg/mL (≈ 0.149 µM) in data set [7] and 390 to 950 nM in data set [3]. Also, the Phytotoxic activity ranking in [1] (0.001 mg/mL) is listed as 0; in data set [1] (0.01 mg/mL), 5; in data set [1] (0.1 mg/mL), 5; in data set [1] (1.0 mg/mL) it was 5; in [2] (0.001 mg/mL) it was 0; in data set [2] (0.01 mg/mL), 4. For the same molecule, the Phytotoxic activity ranking in data set [2] (0.1 mg/mL) and in [2] (1.0 mg/mL) was 5 in each case.
On to `C[C@@]12C=CC[C@]3(C)C(=O)O[C@H](C=C4COC(=O)C=C41)C23` (some centres unmarked) [Compound 7], for which the IC50 in data set [7] is 0.17 µg/mL (≈ 0.624 µM); in [3], 390 to 950 nM. Further, the Phytotoxic activity ranking in data set [1] (0.001 mg/mL) amounted to 0; in data set [1] (0.01 mg/mL), 1; in [1] (0.1 mg/mL), 5; in data set [1] (1.0 mg/mL) it was 5; in data set [2] (0.001 mg/mL) it was 0; in data set [2] (0.1 mg/mL), 5. This molecule also came in with a Phytotoxic activity ranking in [2] (1.0 mg/mL) of 5.
On to `C[C@@]12CC[C@@H](O)[C@]3(C)C(=O)O[C@H](C=C4COC(=O)C=C41)C23` (some centres unmarked) [Compound 8], for which the IC50 at 48 h in data set [6], in data set [9], in data set [4], in data set [5] and in data set [10] was above 10 µg/mL each time. The “antiplasmodial activity (in words)” value in data set [7] and in data set [8] was “inactive” in each case. Further, the Phytotoxic activity ranking in data set [1] (0.001 mg/mL) is on record as 0; in data set [1] (0.01 mg/mL) it was 0; in data set [1] (0.1 mg/mL), 2; in [1] (1.0 mg/mL), 5; in [2] (0.001 mg/mL), 0; in [2] (0.01 mg/mL), 0. Further, the Phytotoxic activity ranking in [2] (0.1 mg/mL) was determined as 3; in data set [2] (1.0 mg/mL), 5. In addition, the “growth inhibition (in words)” value in data set [1] and in data set [2] was “total inhibition of growth” each time.
As for `C[C@@]12C[C@@H](O)C[C@]3(C)C4=CC(=O)OCC4=C[C@@H](OC1=O)C23` (some centres unmarked) [Compound 9], the results for the IC50 in [7] and in data set [8] were 0.097 µg/mL (≈ 0.334 µM) and 0.084 µg/mL (≈ 0.289 µM), respectively. In [11], the “inhibition of wheat coleoptile elongation (in words)” value is recorded as “weak inhibitor”. Besides, the Phytotoxic activity ranking in [1] (0.01 mg/mL) was 2; in data set [1] (0.1 mg/mL), 5; in data set [1] (1.0 mg/mL), 5; in data set [2] (0.001 mg/mL), 2; in data set [2] (0.01 mg/mL) it was 3; in data set [2] (0.1 mg/mL), 5. Besides, the Phytotoxic activity ranking in [2] (1.0 mg/mL) is 5.
Take `C[C@@]12CC[C@@H](O)[C@]3(C)C4=CC(=O)OCC4=C[C@@H](OC1=O)C23` (some centres unmarked) [Compound 10]: the Phytotoxic activity ranking in data set [1] (0.001 mg/mL) amounted to 0; in data set [1] (0.01 mg/mL) it was 1; in [1] (0.1 mg/mL), 5; in data set [1] (1.0 mg/mL), 5; in [2] (0.001 mg/mL) it was 0; in data set [2] (0.01 mg/mL) it was 1. Besides, the Phytotoxic activity ranking in data set [2] (0.1 mg/mL) and in data set [2] (1.0 mg/mL) was 5 each time.
For the molecule `C[C@@]12CCC[C@]3(C)C4=CC(=O)OCC4=C[C@@H](OC1=O)C23` (some centres unmarked) [Compound 11], the IC50 in [3] lay in the range of 390 to 950 nM. In addition, the “phytotoxicity (in words)” value in data set [12] is given as “potent phytotoxin”. The Phytotoxic activity ranking was determined as 0 in [1] (0.001 mg/mL); 2 in [1] (0.01 mg/mL); 5 in data set [1] (0.1 mg/mL); 5 in data set [1] (1.0 mg/mL); 0 in data set [2] (0.001 mg/mL); 3 in [2] (0.01 mg/mL). The Phytotoxic activity ranking in data set [2] (0.1 mg/mL) and in [2] (1.0 mg/mL) was 5 throughout.
Turning to `C[C@]12CCC[C@](C)(C(=O)O)[C@@H]1C=C[C@]1(O)COC(=O)C[C@H]21` [Compound 12, oidiolactone-E], the Phytotoxic activity ranking is recorded as 0 in [1] (0.001 mg/mL); 2 in data set [1] (0.01 mg/mL); 4 in data set [1] (0.1 mg/mL); 5 in data set [1] (1.0 mg/mL); 0 in [2] (0.001 mg/mL); 1 in [2] (0.01 mg/mL). The Phytotoxic activity ranking in [2] (0.1 mg/mL) was determined as 4; in [2] (1.0 mg/mL), 5.
In the case of `C=C1C(O)CC2[C@](C)(CCC[C@]2(C)C(=O)O)C1CC(=O)O` (some centres unmarked) [Compound 13], the IC50 at 48 h in [6] (setting [14]) is above 10 µg/mL; in [13], above 4.76 µg/mL; in data set [9] (SK-MEL cells (malignant melanoma)), above 10 µg/mL; in data set [4] (setting [15]), above 10 µg/mL; in data set [5] (setting [16]) it was above 10 µg/mL; in data set [10] (setting [17]) it was above 10 µg/mL. The “antiplasmodial activity (in words)” value in data set [7] and in [8] was “inactive” each time. Moreover, the IC50 in [7] and in data set [8] was above 4.76 µg/mL in each case. Further, the Phytotoxic activity ranking in data set [1] (0.001 mg/mL) came out at 0; in data set [1] (0.01 mg/mL), 0; in data set [1] (0.1 mg/mL) it was 0; in [1] (1.0 mg/mL), 1; in data set [2] (0.001 mg/mL) it was 0; in data set [2] (0.01 mg/mL) it was 0. Besides, the Phytotoxic activity ranking in [2] (0.1 mg/mL) and in data set [2] (1.0 mg/mL) was 0 each time. Also, the “growth inhibition (in words)” value in data set [1] and in [2] was “inactive” each time.
As for `CCN(CC)CCCC(C)Nc1ccnc2cc(Cl)ccc12` (centres unmarked) [chloroquine, reference compound], the IC50 in data set [8] is 0.1 µg/mL (≈ 0.313 µM).
